Activity calls are given as the source filed them. No cut-off for these calls is given here.
Organism: Sus scrofa
Test: (§1) Inhibition of pig pancreatic elastase

Row | Activity | SMILES
1 | inactive | CCOC(=O)CN1C(=O)C(CC)(CC)C1=O
2 | inactive | CCC1(CC)C(=O)N(Cc2ccccc2)C1=O

Target: not listed separately
Test: as §1
Design: species or system Sus scrofa

Row | SMILES | Ki [µM]
3 | CCC1(CC)C(=O)N(c2ccccc2)C1=O | 10.2
4 | CCC1(CC)C(=O)N(c2ccc(C#N)cc2)C1=O | 6.02
5 | CC1(C)C(=O)N(Cc2ccccc2)C1=O | 184

Continued, values first:

Row | Ki [µM] | SMILES
6 | 10 | CC1(C)C(=O)N(c2ccc(Cl)cc2)C1=O
7 | 7.46 | CCC1(CC)C(=O)N(c2ccc(C)cc2)C1=O
8 | 9.81 | CCC1(CC)C(=O)N(c2ccc(OC)cc2)C1=O
9 | 8.47 | CCC1(CC)C(=O)N(c2ccc(Cl)cc2)C1=O

Reference: ChEMBL document CHEMBL1142246, “Azetidine-2,4-diones (4-oxo-beta-lactams) as scaffolds for designing elastase inhibitors” (J Med Chem, 2008)
